In ChEMBL document CHEMBL4321842 (J Med Chem, 2019):

Key:
[1] = molecular target: Mitogen-activated protein kinase 11 (Homo sapiens, UniProt Q15759); test: Inhibition of p38-beta (unknown origin) expressed in human HEK293 cells incubated for 2 hrs followed by NanoBRET NanoGlo Substrate addition by NanoBRET assay; assay type: cell-based
[2] = molecular target: Epithelial discoidin domain-containing receptor 1 (Homo sapiens, UniProt Q08345); test: Inhibition of DDR1 (unknown origin) expressed in human HEK293 cells incubated for 2 hrs followed by NanoBRET NanoGlo Substrate addition by NanoBRET assay; assay type: cell-based
Chain of Epithelial discoidin domain-containing receptor 1 (Q08345 whole entry, the tested form may be a part): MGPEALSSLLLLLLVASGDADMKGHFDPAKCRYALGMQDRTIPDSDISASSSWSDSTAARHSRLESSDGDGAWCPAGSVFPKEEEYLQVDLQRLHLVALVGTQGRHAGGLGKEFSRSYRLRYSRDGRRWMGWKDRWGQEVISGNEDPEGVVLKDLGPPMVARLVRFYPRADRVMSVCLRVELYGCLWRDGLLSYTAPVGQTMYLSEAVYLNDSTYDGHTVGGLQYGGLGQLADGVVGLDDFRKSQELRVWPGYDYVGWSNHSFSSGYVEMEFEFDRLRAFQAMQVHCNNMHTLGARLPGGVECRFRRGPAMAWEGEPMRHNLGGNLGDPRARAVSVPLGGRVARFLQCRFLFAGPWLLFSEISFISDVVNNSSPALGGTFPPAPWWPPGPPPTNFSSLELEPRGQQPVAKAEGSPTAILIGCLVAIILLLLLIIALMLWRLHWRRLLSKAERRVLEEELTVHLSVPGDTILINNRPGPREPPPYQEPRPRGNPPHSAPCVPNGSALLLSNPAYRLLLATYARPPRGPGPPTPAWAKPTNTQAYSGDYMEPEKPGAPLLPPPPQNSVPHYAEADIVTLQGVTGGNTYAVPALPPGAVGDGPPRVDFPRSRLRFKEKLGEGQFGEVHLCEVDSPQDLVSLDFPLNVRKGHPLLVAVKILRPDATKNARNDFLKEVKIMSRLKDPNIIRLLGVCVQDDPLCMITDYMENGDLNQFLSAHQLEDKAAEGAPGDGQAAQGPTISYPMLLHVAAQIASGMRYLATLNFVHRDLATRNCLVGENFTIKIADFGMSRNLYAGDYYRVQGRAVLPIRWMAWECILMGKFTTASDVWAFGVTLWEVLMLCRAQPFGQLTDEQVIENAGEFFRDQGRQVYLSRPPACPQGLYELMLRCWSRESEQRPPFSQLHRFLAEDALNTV

[3] = molecular target: T1, Discoidin domain-containing receptor 2 (Homo sapiens, UniProt Q16832); test: Inhibition of DDR2 (unknown origin) expressed in human HEK293 cells incubated for 2 hrs followed by NanoBRET NanoGlo Substrate addition by NanoBRET assay; assay type: cell-based
T1 sequence (Q16832 whole entry): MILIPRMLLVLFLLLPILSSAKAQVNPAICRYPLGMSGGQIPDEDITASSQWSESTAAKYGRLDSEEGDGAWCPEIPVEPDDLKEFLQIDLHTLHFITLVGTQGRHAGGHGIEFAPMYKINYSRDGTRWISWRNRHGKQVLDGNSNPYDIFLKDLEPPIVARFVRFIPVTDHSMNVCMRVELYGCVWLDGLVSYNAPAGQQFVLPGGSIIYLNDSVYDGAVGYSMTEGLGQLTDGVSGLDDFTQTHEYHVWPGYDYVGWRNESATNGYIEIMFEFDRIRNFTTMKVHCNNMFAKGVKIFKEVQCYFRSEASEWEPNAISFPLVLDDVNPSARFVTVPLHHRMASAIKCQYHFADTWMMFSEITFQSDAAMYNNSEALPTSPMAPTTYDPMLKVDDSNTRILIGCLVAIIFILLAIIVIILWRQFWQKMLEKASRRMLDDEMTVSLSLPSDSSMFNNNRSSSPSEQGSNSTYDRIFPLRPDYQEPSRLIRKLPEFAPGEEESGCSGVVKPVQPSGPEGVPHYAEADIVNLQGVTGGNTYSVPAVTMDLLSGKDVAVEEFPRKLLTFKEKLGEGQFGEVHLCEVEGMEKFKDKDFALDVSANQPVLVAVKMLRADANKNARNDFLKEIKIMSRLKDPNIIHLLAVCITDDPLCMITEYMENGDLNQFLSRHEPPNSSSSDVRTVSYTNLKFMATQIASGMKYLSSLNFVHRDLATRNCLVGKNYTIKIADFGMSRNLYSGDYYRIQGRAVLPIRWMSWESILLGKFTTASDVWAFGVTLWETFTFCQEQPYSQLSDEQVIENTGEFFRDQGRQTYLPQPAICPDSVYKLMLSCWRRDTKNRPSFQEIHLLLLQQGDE

[4] = molecular target: Mitogen-activated protein kinase 14 (Homo sapiens, UniProt Q16539); test: Inhibition of full-length human C-terminal NanoLuc-tagged P38 alpha MAPK expressed in human HEK293T cells incubated for 2 hrs followed by NanoBRET NanoGlo Substrate addition by NanoBRET assay; assay type: cell-based
Chain of Mitogen-activated protein kinase 14 (Q16539 whole entry): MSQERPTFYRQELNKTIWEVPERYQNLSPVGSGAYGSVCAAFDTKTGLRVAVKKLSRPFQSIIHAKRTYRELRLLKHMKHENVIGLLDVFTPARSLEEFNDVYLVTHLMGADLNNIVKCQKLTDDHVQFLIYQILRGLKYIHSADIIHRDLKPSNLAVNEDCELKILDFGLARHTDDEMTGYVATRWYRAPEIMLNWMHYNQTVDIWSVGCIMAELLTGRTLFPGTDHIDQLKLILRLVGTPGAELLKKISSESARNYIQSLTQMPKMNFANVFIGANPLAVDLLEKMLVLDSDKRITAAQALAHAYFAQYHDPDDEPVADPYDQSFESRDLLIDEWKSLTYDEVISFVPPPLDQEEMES

[5] = test system: Blood; test: Inhibition of LPS-induced TNFalpha production in human whole blood at 10 uM preincubated for 15 mins followed by LPS stimulation and measured after 2.5 hrs by ELISA relative to control; assay type: functional
[6] = molecular target: Ribosomal protein S6 kinase alpha-6 (Homo sapiens, UniProt Q9UK32); test: Inhibition of RSK4 kinase domain 1 (unknown origin) expressed in human HEK293 cells incubated for 2 hrs followed by NanoBRET NanoGlo Substrate addition by NanoBRET assay; assay type: cell-based
Chain of Ribosomal protein S6 kinase alpha-6 (Q9UK32 whole entry, the tested form may be a part): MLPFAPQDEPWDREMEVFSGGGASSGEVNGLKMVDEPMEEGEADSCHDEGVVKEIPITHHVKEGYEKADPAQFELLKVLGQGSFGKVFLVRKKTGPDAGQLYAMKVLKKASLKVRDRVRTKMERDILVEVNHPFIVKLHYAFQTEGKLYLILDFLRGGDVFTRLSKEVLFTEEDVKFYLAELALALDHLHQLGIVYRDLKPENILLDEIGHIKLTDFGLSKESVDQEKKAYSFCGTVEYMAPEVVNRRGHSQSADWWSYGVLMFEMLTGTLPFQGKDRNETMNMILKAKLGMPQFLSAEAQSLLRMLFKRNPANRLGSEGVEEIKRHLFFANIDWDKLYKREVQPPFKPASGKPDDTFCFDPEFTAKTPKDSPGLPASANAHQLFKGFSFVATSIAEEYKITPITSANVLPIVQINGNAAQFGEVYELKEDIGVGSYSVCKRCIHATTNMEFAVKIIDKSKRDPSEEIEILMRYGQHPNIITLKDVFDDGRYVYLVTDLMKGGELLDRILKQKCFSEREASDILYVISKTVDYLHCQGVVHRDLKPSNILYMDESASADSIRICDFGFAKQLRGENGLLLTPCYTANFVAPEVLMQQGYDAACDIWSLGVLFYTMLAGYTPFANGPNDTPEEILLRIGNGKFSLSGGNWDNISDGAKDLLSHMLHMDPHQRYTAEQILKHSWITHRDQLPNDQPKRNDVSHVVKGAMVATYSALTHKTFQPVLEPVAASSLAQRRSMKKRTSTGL

[7] = molecular target: T2, Myosin light chain kinase family member 4 (Homo sapiens, UniProt Q86YV6); test: Inhibition of MYLK4 (unknown origin) expressed in human HEK293 cells incubated for 2 hrs followed by NanoBRET NanoGlo Substrate addition by NanoBRET assay; assay type: cell-based
T2 sequence (Q86YV6 whole entry): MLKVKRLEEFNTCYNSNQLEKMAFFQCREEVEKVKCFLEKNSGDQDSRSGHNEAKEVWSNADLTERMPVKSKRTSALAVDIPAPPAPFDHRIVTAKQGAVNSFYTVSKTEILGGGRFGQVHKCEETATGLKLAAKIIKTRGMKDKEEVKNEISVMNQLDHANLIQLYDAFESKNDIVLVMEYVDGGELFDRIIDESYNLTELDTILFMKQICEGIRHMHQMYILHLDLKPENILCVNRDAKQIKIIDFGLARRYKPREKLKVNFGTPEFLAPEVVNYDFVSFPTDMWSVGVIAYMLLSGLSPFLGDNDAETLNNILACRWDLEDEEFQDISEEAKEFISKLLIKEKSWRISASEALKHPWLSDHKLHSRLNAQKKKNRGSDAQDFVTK

[8] = test system: Blood; test: Inhibition of LPS-induced TNFalpha production in human whole blood preincubated for 15 mins followed by LPS stimulation and measured after 2.5 hrs by ELISA; assay type: functional, tissue-based
[9] = molecular target: Mast/stem cell growth factor receptor Kit (Homo sapiens, UniProt P10721); test: Inhibition of KIT (unknown origin) expressed in human HEK293 cells incubated for 2 hrs followed by NanoBRET NanoGlo Substrate addition by NanoBRET assay; assay type: cell-based
Chain of Mast/stem cell growth factor receptor Kit (P10721 whole entry): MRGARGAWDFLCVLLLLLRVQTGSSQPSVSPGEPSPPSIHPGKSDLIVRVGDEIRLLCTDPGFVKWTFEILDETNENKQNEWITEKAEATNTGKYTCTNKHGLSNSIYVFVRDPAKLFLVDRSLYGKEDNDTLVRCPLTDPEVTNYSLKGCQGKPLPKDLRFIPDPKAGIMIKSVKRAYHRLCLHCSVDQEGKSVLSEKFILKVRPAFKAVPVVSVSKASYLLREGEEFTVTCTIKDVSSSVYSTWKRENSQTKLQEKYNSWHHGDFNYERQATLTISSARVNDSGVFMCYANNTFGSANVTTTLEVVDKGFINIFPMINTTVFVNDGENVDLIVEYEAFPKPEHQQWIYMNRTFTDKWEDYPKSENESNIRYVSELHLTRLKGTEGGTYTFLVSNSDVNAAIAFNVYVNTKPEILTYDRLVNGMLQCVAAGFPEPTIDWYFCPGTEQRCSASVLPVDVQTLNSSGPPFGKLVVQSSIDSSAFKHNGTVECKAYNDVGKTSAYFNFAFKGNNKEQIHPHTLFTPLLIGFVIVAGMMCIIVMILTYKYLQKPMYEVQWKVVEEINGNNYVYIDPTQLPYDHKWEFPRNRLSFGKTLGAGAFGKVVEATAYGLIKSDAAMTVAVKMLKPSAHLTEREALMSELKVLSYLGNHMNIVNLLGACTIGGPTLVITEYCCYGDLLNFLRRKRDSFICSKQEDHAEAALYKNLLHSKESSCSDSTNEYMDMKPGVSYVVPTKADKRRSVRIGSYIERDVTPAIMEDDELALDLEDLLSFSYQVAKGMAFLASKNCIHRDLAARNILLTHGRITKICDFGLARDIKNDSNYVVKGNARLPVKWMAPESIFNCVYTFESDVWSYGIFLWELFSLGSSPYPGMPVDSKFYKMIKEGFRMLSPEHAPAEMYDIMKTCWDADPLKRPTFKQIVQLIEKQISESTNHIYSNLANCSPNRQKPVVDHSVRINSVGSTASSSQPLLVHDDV

Chain of Mitogen-activated protein kinase 11 (Q15759 whole entry, the tested form may be a part): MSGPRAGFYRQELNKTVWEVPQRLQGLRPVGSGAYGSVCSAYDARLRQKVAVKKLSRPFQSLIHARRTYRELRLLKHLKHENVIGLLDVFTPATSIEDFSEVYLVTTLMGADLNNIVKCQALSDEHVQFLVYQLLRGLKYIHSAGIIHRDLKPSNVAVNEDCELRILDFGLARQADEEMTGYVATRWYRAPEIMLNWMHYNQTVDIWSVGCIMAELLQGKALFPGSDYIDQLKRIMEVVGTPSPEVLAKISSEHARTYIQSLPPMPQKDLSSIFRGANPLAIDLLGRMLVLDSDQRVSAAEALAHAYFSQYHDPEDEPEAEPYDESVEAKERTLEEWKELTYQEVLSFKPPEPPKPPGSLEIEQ

Which results are given for `O=C(NCCCC1CCCCC1)c1ccc(CNC(=O)c2cnn(-c3ccccc3)c2C(F)(F)F)cc1` [SR-321]?
IC50 [1]: 11 µM; IC50 [2]: 13 µM; IC50 [3]: 0.22 µM; IC50 [4]: 13 µM; inhibition at 10 µM [5]: 6.35%; IC50 [6]: > 20 µM; IC50 [7]: > 20 µM; IC50 [8]: > 10 µM; IC50 [9]: > 20 µM
